Test results taken from US20220242861A1, “IMIDAZOPYRIDINYL COMPOUNDS AND USE THEREOF FOR TREATMENT OF PROLIFERATIVE DISORDERS” (1ST Biotherapeutics, Inc., priority 2019, published 2022).
Blank lines part the entries; values can stand above or below the compound they belong to.

Tests used:
[1] = tested on: K562 human leukemia cell line; experiment: K562 Cell Proliferation Assay (MTS); assay type: cell-based; settings: K562 cells, 48 hr incubation, MTS cell viability
Method: K562 human leukemia cell line purchased from Korean cell line bank (KCLB) and were cultured in Roswell Park Memorial Institute (RPMI) 1640 Medium supplemented with 10% fetal bovine serum (FBS) and 1% penicillin-streptomycin in a humidified incubator in an atmosphere of 5% CO2 at 37° C. Cells were seeded in 96-well plates at a density of 2×10^3 cells/well in 100 […] media. Compounds were diluted as two times concentration in 100 μl of media and added to each well. Compounds were 5-fold serially diluted for 6 points and treated from 5 μM to 1.6 nM in K562 cells. After 48 hr incubation, Compound treated cells were analyzed for anti-proliferation assay. Cell viability was investigated using the Cell Titer 96 Aqueous One Solution Reagent. Briefly, 200 μl of media were supplemented with 40 μl of MTS solution, incubated for 4hr, and then the absorbance was recorded at 490 nm with a 96-well plate reader. G150 values were calculated from a series of percent of cell viability at a range of compound concentration. GraphPad Prism 8 software or SigmaPlot 13.0 was used to generate G150 values.

recombinant human c-Kit = target: T1, recombinant human c-Kit (Homo sapiens, UniProt P10721); experiment: c-Kit Kinase Assay (ADP-Glo); assay type: biochemical; settings: In vitro kinase activity
T1 construct: purchased Signalchem
Method: (§1) ADP-Glo assay kit was purchased from Promega. Magnesium chloride (MgCl2), ethylene glycol-bis(8-aminoethyl ether)-N,N,N′,N′-tetraacetic acid (EGTA), manganese (II) chloride (MnCl2), bovine serum albumin (BSA), 1,4-dithiothreitol (DTT) and dimethyl sulfoxide (DMSO) were purchased from Sigma-Aldrich. HEPES buffer was purchased from Gibco. c-Kit kinase and poly (4:1 Glu, Tyr) peptide were purchased from Signalchem.
(§2) c-Kit kinase activity was measured by Promega's ADP-Glo™ Assay. In this assay, 100ng of recombinant human c-Kit is incubated with 5 μL of compounds (0.5% DMSO), 5 μL of Poly (4:1 Glu, Tyr) peptide (50 ng/μl) and 5 μL of ATP (50 μM) in buffer (50 mM HEPES, pH7.5; 10 mM MgCl2; 1 mM EGTA; 0.05% BSA; 50μM DTT; 2mM MnCl2). The assay was started by incubating the reaction mixture in a 96-well plate at 30° C. for 120-min. After the incubation, 25 μL ADP-Glo reagent was added and the reaction was incubated at room temperature for 40-min to stop the reaction and degrade residual ATP. The ADP product was then converted to ATP by adding 50 μL per well of detection reagent. Luminescence was detected after 30-min room temperature incubation with the Molecular device I3X plate reader. The IC50 values were calculated from a series of percent inhibition values determined at a range of inhibitor concentration using software routines as implemented in the GraphPad Prism 8 software and Sigma Plot 13.0.

[2] = target: T2, recombinant human c-Kit (D816V) (Homo sapiens, UniProt P10721, D816V); experiment: c-Kit (D816V) Kinase Assay (ADP-Glo); assay type: biochemical; settings: In vitro kinase activity
T2 construct: purchased Signalchem
Method: as §1, with “glycol-bis(β-aminoethyl” for “glycol-bis(8-aminoethyl”, “(EGTA),” for “(EGTA), manganese (II) chloride (MnCl2),”, “c-Kit (D816V)” for “c-Kit”
as §2, with “c-Kit (D816V)” for “c-Kit”, “Promega's ADP-GIoTM” for “Promega's ADP-Glo™”, “assay, 2.5ng” for “assay, 100ng”, “ATP (15” for “ATP (50”, “BSA; 50 μM DTT).” for “BSA; 50μM DTT; 2mM MnCl2).”

recombinant human PDGFRα = target: T3, recombinant human PDGFRα (Homo sapiens, UniProt P16234); experiment: PDGFRα Kinase Assay (ADP-Glo); assay type: biochemical; settings: In vitro kinase activity, read-out: PDGFRa IC50
T3 construct: purchased Signalchem
Method: as §1, with “glycol-bis(p-aminoethyl” for “glycol-bis(8-aminoethyl”, “(EGTA),” for “(EGTA), manganese (II) chloride (MnCl2),”, “PDGFRα Kinase” for “c-Kit kinase”
(§3) PDGFRα kinase activity was measured by Promega's ADP-Glo™ Assay. In this assay, 40ng of recombinant human PDGFRα is incubated with 5 μL of compounds (0.5% DMSO), 5 μL of Poly (4:1 Glu, Tyr) peptide (100 ng/μl) and 5 μL of ATP (25 pM) in buffer (50 mM HEPES, pH7.5; 10 mM MgCl2; 1 mM EGTA; 0.05% BSA; 50 μM DTT). The assay was started by incubating the reaction mixture in a 96-well plate at 30° C. for 60-min. After the incubation, 25 μL ADP-Glo reagent was added and the reaction was incubated at room temperature for 40-min to stop the reaction and degrade residual ATP. The ADP product was then converted to ATP by adding 50 μL per well of detection reagent. Luminescence was detected after 30-min room temperature incubation with the Molecular device I3X plate reader. The IC50 values were calculated from a series of percent inhibition values determined at a range of inhibitor concentration using software routines as implemented in the GraphPad Prism 8 software and Sigma Plot 13.0.

[3] = target: T4, recombinant human PDGFRα (D842V) (Homo sapiens, UniProt P16234, D842V); experiment: PDGFRα (D842V) Kinase Assay (ADP-Glo); assay type: biochemical; settings: In vitro kinase activity
T4 construct: purchased Signalchem
Method: ADP-Glo assay kit was purchased from Promega. Magnesium chloride (MgCl2), ethylene glycol-bis(p-aminoethyl ether)-N, N, N′, N′-tetraacetic acid (EGTA), bovine serum albumin (BSA), 1,4-dithiothreitol (DTT) and dimethyl sulfoxide (DMSO) were purchased from Sigma-Aldrich. HEPES buffer was purchased from Gibco. PDGFRα (D842V) Kinase and poly (4:1 Glu, Tyr) peptide were purchased from Signalchem.
as §3, with “PDGFRα (D842V)” for “PDGFRα”, “10 ng” for “40ng”, “([…]” for “(25”, “[…]” for “50 μM”, “120-min.” for “60-min.”

T4 sequence (P16234 24-1089 D842V): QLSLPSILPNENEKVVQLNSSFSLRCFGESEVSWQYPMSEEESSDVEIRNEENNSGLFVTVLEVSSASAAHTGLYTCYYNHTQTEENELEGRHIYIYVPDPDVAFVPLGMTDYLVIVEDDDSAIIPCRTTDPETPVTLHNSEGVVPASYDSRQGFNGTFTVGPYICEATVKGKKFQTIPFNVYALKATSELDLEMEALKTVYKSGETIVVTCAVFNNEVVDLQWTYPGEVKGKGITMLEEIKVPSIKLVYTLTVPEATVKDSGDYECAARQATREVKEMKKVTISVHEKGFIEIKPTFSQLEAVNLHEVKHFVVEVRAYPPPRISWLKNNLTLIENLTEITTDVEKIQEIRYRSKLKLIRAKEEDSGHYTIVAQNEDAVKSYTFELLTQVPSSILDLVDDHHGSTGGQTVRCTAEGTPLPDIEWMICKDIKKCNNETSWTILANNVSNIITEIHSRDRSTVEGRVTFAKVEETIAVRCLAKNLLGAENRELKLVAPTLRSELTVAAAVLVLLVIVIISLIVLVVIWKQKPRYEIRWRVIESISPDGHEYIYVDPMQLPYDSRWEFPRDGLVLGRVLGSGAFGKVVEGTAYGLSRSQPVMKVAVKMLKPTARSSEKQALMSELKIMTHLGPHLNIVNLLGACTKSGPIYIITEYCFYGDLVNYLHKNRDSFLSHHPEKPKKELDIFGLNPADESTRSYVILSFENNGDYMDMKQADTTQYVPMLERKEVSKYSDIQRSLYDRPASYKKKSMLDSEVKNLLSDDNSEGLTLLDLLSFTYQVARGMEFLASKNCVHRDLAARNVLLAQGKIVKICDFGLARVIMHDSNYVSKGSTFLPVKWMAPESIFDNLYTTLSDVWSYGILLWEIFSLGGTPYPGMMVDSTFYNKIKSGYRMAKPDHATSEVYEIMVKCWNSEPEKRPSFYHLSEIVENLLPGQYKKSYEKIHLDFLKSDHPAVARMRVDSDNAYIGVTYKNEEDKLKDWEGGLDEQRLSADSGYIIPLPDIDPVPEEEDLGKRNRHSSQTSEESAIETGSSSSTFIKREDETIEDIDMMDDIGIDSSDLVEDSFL
T3 sequence (P16234 24-1089): as the sequence (P16234 24-1089 D842V) above, with V819D counted along it
T1 sequence (P10721 26-976): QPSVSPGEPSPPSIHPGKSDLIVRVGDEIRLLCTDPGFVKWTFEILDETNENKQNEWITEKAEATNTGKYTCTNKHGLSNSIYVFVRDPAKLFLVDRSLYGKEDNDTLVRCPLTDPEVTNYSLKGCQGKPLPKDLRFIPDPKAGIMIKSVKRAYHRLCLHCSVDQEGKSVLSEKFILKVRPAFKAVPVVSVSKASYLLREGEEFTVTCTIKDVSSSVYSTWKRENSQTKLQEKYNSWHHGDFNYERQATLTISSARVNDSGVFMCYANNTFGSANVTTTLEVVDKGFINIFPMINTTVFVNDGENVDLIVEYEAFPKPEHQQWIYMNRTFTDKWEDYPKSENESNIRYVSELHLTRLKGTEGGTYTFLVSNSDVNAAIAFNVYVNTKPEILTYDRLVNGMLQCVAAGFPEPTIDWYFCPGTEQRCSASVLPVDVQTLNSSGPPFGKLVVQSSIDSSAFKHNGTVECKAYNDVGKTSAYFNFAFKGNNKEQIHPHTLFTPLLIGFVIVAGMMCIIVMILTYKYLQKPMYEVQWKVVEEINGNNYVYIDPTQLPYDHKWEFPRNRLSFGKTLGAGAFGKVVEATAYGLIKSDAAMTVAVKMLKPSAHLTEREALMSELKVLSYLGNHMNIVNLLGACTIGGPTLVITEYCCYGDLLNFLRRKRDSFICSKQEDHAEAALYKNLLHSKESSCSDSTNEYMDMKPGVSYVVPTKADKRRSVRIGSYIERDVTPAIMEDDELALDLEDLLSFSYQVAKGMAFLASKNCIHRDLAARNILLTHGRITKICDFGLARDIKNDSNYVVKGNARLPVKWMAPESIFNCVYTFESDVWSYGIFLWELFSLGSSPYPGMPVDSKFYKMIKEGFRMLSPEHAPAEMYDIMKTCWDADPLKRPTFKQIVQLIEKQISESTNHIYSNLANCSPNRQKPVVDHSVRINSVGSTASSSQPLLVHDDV
T2 sequence (P10721 26-976 D816V): as the sequence (P10721 26-976) above, with D791V counted along it

IC50 [1]: 101 to 1000 nM
SMILES: Cc1c(F)cccc1-c1ccc2nc(NC(=O)[C@@H]3C[C@@H]3F)cn2c1 [Example 1, (1 S,2 S)-2-fluoro-N-(6-(3-fluoro-2-methylphenyl)imidazo[1,2-a]pyridin-2-yl)cyclopropane-1-carboxamide]

IC50 [1]: 101 to 1000 nM
SMILES: Cc1ccc(F)cc1-c1ccc2nc(NC(=O)[C@@H]3C[C@@H]3F)cn2c1 [Example 11, (1 S,2 S)-2-fluoro-N-(6-(5-fluoro-2-methylphenyl)imidazo[1,2-a]pyridin-2-yl)cyclopropane-1-carboxamide]

IC50 [1]: 10 to 100 nM
SMILES: Cc1ccc(O)cc1-c1ccc2nc(NC(=O)[C@@H]3C[C@@H]3F)cn2c1 [Example 12, (1 S,2 S)-2-fluoro-N-(6-(5-hydroxy-2-methylphenyl)imidazo[1,2-a]pyridin-2-yl)cyclopropane-1-carboxamide]

IC50 [1]: 10 to 100 nM
SMILES: Cc1ccc2[nH]ccc2c1-c1ccc2nc(NC(=O)[C@@H]3C[C@@H]3F)cn2c1 [Example 15, (1 S,2 S)-2-fluoro-N-(6-(5-methyl-1H-indol-4-yl)imidazo[1,2-a]pyridin-2-yl)cyclopropane-1-carboxamide]

IC50 [1]: 10 to 100 nM
SMILES: CNc1ccc(C)c(-c2ccc3nc(NC(=O)[C@@H]4C[C@@H]4F)cn3c2)c1 [Example 24, (1 S,2 S)-2-fluoro-N-(6-(2-methyl-5-(methylamino)phenyl)imidazo[1,2-a]pyridin-2-yl)cyclopropane-1-carboxamide]

IC50 [1]: 10 to 100 nM
SMILES: Cc1ccc(-c2cc[nH]c2)cc1-c1ccc2nc(NC(=O)[C@@H]3C[C@@H]3F)cn2c1 [Example 40, (1 S,2 S)-2-fluoro-N-(6-(2-methyl-5-(1H-pyrrol-3-yl)phenyl)imidazo[1,2-a]pyridin-2-yl)cyclopropane-1-carboxamide]

IC50 (recombinant human c-Kit): > 1000 nM | IC50 [2]: > 1000 nM | IC50 (recombinant human PDGFRα): > 1000 nM | IC50 [3]: 101 to 1000 nM
SMILES: COCc1c(F)cccc1-c1ccc2nc(NC(=O)[C@@H]3C[C@@H]3F)cn2c1 [Example 64, (1 S,2 S)-2-fluoro-N-(6-(3-fluoro-2-(methoxymethyl)phenyl)imidazo[1,2-a]pyridin-2-yl)cyclopropanecarboxamide]

IC50 (recombinant human c-Kit): > 1000 nM | IC50 [2]: > 1000 nM | IC50 (recombinant human PDGFRα): > 1000 nM | IC50 [3]: > 1000 nM
SMILES: O=C(Nc1cn2cc(-c3cccc(F)c3-c3ccco3)ccc2n1)[C@@H]1C[C@@H]1F [Example 65, (1 S,2 S)-2-fluoro-N-(6-(3-fluoro-2-(furan-2-yl)phenyl)imidazo[1,2-a]pyridin-2-yl)cyclopropanecarboxamide]

IC50 (recombinant human c-Kit): > 1000 nM | IC50 [2]: > 1000 nM | IC50 (recombinant human PDGFRα): > 1000 nM | IC50 [3]: > 1000 nM
SMILES: CC(=O)c1c(F)cccc1-c1ccc2nc(NC(=O)[C@@H]3C[C@@H]3F)cn2c1 [Example 68, (1 S,2 S)-N-(6-(2-acetyl-3-fluorophenyl)imidazo[1,2-a]pyridin-2-yl)-2-fluorocyclopropanecarboxamide]

IC50 [1]: 101 to 1000 nM
SMILES: Cc1c(F)cccc1-c1ccc2nc(NC(=O)C3CC3)cn2c1 [Example 70, N-(6-(3-fluoro-2-methylphenyl)imidazo[1,2-a]pyridin-2-yl)cyclopropanecarboxamide]

IC50 [1]: 101 to 1000 nM
SMILES: Cc1c(F)cccc1-c1ccc2nc(NC(=O)C3CC3(F)F)cn2c1 (centres unmarked) [Example 77, 2,2-difluoro-N-(6-(3-fluoro-2-methylphenyl)imidazo[1,2-a]pyridin-2-yl)cyclopropanecarboxamide]

IC50 (recombinant human c-Kit): > 1000 nM | IC50 [2]: > 1000 nM
SMILES: CN(C)Cc1c(F)cccc1-c1ccc2nc(NC(=O)[C@@H]3C[C@@H]3F)cn2c1 [Example 84, (1 S,2 S)-N-(6-(2-((dimethylamino)methyl)-3-fluorophenyl)imidazo[1,2-a]pyridin-2-yl)-2-fluorocyclopropanecarboxamide]

IC50 [1]: 101 to 1000 nM
SMILES: O=C(Nc1cn2cc(-c3cnc4[nH]ccc4c3)ccc2n1)[C@@H]1C[C@@H]1F [Example 85, (1 S,2 S)-N-(6-(1H-pyrrolo[2,3-b]pyridin-5-yl)imidazo[1,2-a]pyridin-2-yl)-2-fluorocyclopropanecarboxamide]

IC50 [1]: 10 to 100 nM
SMILES: Cc1cc2[nH]ccc2cc1-c1ccc2nc(NC(=O)[C@@H]3C[C@@H]3F)cn2c1 [Example 92, (1 S,2 S)-2-fluoro-N-(6-(6-methyl-1H-indol-5-yl)imidazo[1,2-a]pyridin-2-yl)cyclopropanecarboxamide]

IC50 [1]: 101 to 1000 nM
SMILES: Cc1cc2nc[nH]c2cc1-c1ccc2nc(NC(=O)[C@@H]3C[C@@H]3F)cn2c1 [Example 94, (1 S,2 S)-2-fluoro-N-(6-(5-methyl-1H-benzo[d]imidazol-6-yl)imidazo[1,2-a]pyridin-2-yl)cyclopropanecarboxamide]

IC50 [1]: 10 to 100 nM
SMILES: Cc1cc2ncsc2cc1-c1ccc2nc(NC(=O)[C@@H]3C[C@@H]3F)cn2c1 [Example 103, (1 S,2 S)-2-fluoro-N-(6-(5-methylbenzo[d]thiazol-6-yl)imidazo[1,2-a]pyridin-2-yl)cyclopropanecarboxamide]
